Values of other authors in patent US10028900B2, “Photostable sunscreen composition for topical application” (KANCOR INGREDIENTS LTD, priority 2014, dated 2018).

Settings: oil / water

| SMILES | Solubility (in words) |
| --- | --- |
| COc1ccc(C(=O)CC(=O)c2ccc(C(C)(C)C)cc2)cc1 [Avobenzone, 1-(4-methoxyphenyl)-3-(4-tert-butylphenyl)propane-1,3-dione] | oil soluble and water insoluble |
| CCCCC(CC)COC(=O)/C=C/c1ccc(OC)cc1 (centres unmarked) [Octyl-methoxy cinnamate, 2-ethylhexyl (2E)-3-(4-methoxyphenyl) prop-2-enoate] | oil soluble and water insoluble |
